Source: PubChem BioAssay AID2060487 (Molecular Pharmacology Branch, DTP, NCI, 2025)

Tested on: 997537-175-T-J1-PDC complex spheroid viability
Test: Anticancer human tumor 997537-175-T-J1-PDC patient-derived colon adenocarcinoma cell line growth inhibition [GQUAD]
Conditions: for IC50: curve of first compound; for viability, T/C: stronger effect = lower value
Procedure, shortened: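 Multi-cell-type spheroids of tumor cells with HUVEC and mesenchymal stem cells, treated with drug combinations. Concentrations descend in half-log steps from near clinical Cmax, or from 10 microM where Cmax is unknown; viability read-out.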

[1] = second compound 0.0316 µM, first compound 0.0316 µM
[2] = second compound 0.0316 µM, first compound 0.1 µM
[3] = second compound 0.0316 µM, first compound 0.316 µM
[4] = second compound 0.0316 µM, first compound 1 µM
[5] = second compound 0.0316 µM, first compound 3.16 µM
[6] = second compound 0.0316 µM, first compound 10 µM
[7] = second compound 0.1 µM, first compound 0.0316 µM
[8] = second compound 0.1 µM, first compound 0.1 µM
[9] = second compound 0.1 µM, first compound 0.316 µM
[10] = second compound 0.1 µM, first compound 1 µM
[11] = second compound 0.1 µM, first compound 3.16 µM
[12] = second compound 0.1 µM, first compound 10 µM
[13] = second compound 0.316 µM, first compound 0.0316 µM
[14] = second compound 0.316 µM, first compound 0.1 µM
[15] = second compound 0.316 µM, first compound 0.316 µM
[16] = second compound 0.316 µM, first compound 1 µM
[17] = second compound 0.316 µM, first compound 3.16 µM
[18] = second compound 0.316 µM, first compound 10 µM
[19] = second compound 1 µM, first compound 0.0316 µM
[20] = second compound 1 µM, first compound 0.1 µM
[21] = second compound 1 µM, first compound 0.316 µM
[22] = second compound 1 µM, first compound 1 µM
[23] = second compound 1 µM, first compound 3.16 µM
[24] = second compound 1 µM, first compound 10 µM
[25] = second compound 3.16 µM, first compound 0.0316 µM
[26] = second compound 3.16 µM, first compound 0.1 µM
[27] = second compound 3.16 µM, first compound 0.316 µM
[28] = second compound 3.16 µM, first compound 1 µM
[29] = second compound 3.16 µM, first compound 3.16 µM
[30] = second compound 3.16 µM, first compound 10 µM
[31] = second compound 10 µM, first compound 0.0316 µM
[32] = second compound 10 µM, first compound 0.1 µM
[33] = second compound 10 µM, first compound 0.316 µM
[34] = second compound 10 µM, first compound 1 µM
[35] = second compound 10 µM, first compound 3.16 µM
[36] = second compound 10 µM, first compound 10 µM
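Further: spheroids exposed to the agents for 7 days.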
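Wherever viability, T/C is given: 100% = DMSO vehicle control viability.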

## C#Cc1c(F)ccc2cc(O)cc(-c3ncc4c(N5CC6CCC(C5)N6)nc(OCC56CCCN5CC(F)C6)nc4c3F)c12 (stereo unspecified) + Cc1[nH]c2ccc(F)cc2c1-c1nc2c3cccnc3c3ncccc3c2[nH]1
Second compound 0.0316 µM
  IC50: 1870 nM
Second compound 0.1 µM
  IC50: 1900 nM
Second compound 0.316 µM
  IC50: 1840 nM
Second compound 1 µM
  IC50: 1290 nM
Second compound 3.16 µM
  IC50: 563 nM
Second compound 10 µM
  IC50: 460 nM
[1]
  viability, T/C: 87.5%
[2]
  viability, T/C: 90.5%
[3]
  viability, T/C: 97%
[4]
  viability, T/C: 71.1%
[5]
  viability, T/C: 29.3%
[6]
  viability, T/C: 35.4%
[7]
  viability, T/C: 98.8%
[8]
  viability, T/C: 103%
[9]
  viability, T/C: 99.6%
[10]
  viability, T/C: 74.2%
[11]
  viability, T/C: 30.9%
[12]
  viability, T/C: 26.6%
[13]
  viability, T/C: 91.6%
[14]
  viability, T/C: 87.7%
[15]
  viability, T/C: 85.4%
[16]
  viability, T/C: 63.3%
[17]
  viability, T/C: 35.4%
[18]
  viability, T/C: 41%
[19]
  viability, T/C: 95.9%
[20]
  viability, T/C: 88.3%
[21]
  viability, T/C: 79.6%
[22]
  viability, T/C: 56.9%
[23]
  viability, T/C: 29.5%
[24]
  viability, T/C: 38.2%
[25]
  viability, T/C: 89.4%
[26]
  viability, T/C: 73.7%
[27]
  viability, T/C: 62%
[28]
  viability, T/C: 41%
[29]
  viability, T/C: 21.5%
[30]
  viability, T/C: 15.2%
[31]
  viability, T/C: 70.7%
[32]
  viability, T/C: 74.1%
[33]
  viability, T/C: 60.6%
[34]
  viability, T/C: 26.9%
[35]
  viability, T/C: 10.2%
[36]
  viability, T/C: 11.8%

## CC(C)(O)C1CCC(Nc2ccc3ncc(-c4cccc(C(F)(F)F)c4)n3n2)CC1 (stereo unspecified) + Cc1[nH]c2ccc(F)cc2c1-c1nc2c3cccnc3c3ncccc3c2[nH]1
Second compound 0.0316 µM
  IC50: > 10000 nM
Second compound 0.1 µM
  IC50: > 10000 nM
Second compound 0.316 µM
  IC50: > 10000 nM
Second compound 1 µM
  IC50: > 10000 nM
Second compound 3.16 µM
  IC50: > 10000 nM
Second compound 10 µM
  IC50: > 10000 nM
[1]
  viability, T/C: 114%
[2]
  viability, T/C: 107%
[3]
  viability, T/C: 103%
[4]
  viability, T/C: 108%
[5]
  viability, T/C: 107%
[6]
  viability, T/C: 114%
[7]
  viability, T/C: 120%
[8]
  viability, T/C: 103%
[9]
  viability, T/C: 97.5%
[10]
  viability, T/C: 103%
[11]
  viability, T/C: 99.3%
[12]
  viability, T/C: 105%
[13]
  viability, T/C: 101%
[14]
  viability, T/C: 105%
[15]
  viability, T/C: 108%
[16]
  viability, T/C: 101%
[17]
  viability, T/C: 104%
[18]
  viability, T/C: 99.4%
[19]
  viability, T/C: 115%
[20]
  viability, T/C: 99%
[21]
  viability, T/C: 101%
[22]
  viability, T/C: 101%
[23]
  viability, T/C: 97.7%
[24]
  viability, T/C: 90.5%
[25]
  viability, T/C: 94.9%
[26]
  viability, T/C: 97.2%
[27]
  viability, T/C: 93.5%
[28]
  viability, T/C: 90.7%
[29]
  viability, T/C: 104%
[30]
  viability, T/C: 96.9%
[31]
  viability, T/C: 98.1%
[32]
  viability, T/C: 80.3%
[33]
  viability, T/C: 88.9%
[34]
  viability, T/C: 97.4%
[35]
  viability, T/C: 78.3%
[36]
  viability, T/C: 79.6%

## Cc1[nH]c2ccccc2c1CCNCc1ccc(/C=C/C(=O)NO)cc1 + Cc1[nH]c2ccc(F)cc2c1-c1nc2c3cccnc3c3ncccc3c2[nH]1
Second compound 0.0316 µM
  IC50: > 316 nM
Second compound 0.1 µM
  IC50: > 316 nM
Second compound 0.316 µM
  IC50: > 316 nM
Second compound 1 µM
  IC50: > 316 nM
Second compound 3.16 µM
  IC50: > 316 nM
Second compound 10 µM
  IC50: > 316 nM
Second compound 0.0316 µM, first compound 0.000999 µM
  viability, T/C: 100%
Second compound 0.0316 µM, first compound 0.00316 µM
  viability, T/C: 103%
Second compound 0.0316 µM, first compound 0.00999 µM
  viability, T/C: 100%
[1]
  viability, T/C: 106%
Second compound 0.0316 µM, first compound 0.0999 µM
  viability, T/C: 88.8%
[3]
  viability, T/C: 93.2%
Second compound 0.1 µM, first compound 0.000999 µM
  viability, T/C: 89.3%
Second compound 0.1 µM, first compound 0.00316 µM
  viability, T/C: 108%
Second compound 0.1 µM, first compound 0.00999 µM
  viability, T/C: 92.8%
[7]
  viability, T/C: 104%
Second compound 0.1 µM, first compound 0.0999 µM
  viability, T/C: 93.4%
[9]
  viability, T/C: 95.5%
Second compound 0.316 µM, first compound 0.000999 µM
  viability, T/C: 92.1%
Second compound 0.316 µM, first compound 0.00316 µM
  viability, T/C: 111%
Second compound 0.316 µM, first compound 0.00999 µM
  viability, T/C: 92.4%
[13]
  viability, T/C: 91%
Second compound 0.316 µM, first compound 0.0999 µM
  viability, T/C: 105%
[15]
  viability, T/C: 97.1%
Second compound 1 µM, first compound 0.000999 µM
  viability, T/C: 98.4%
Second compound 1 µM, first compound 0.00316 µM
  viability, T/C: 95.1%
Second compound 1 µM, first compound 0.00999 µM
  viability, T/C: 101%
[19]
  viability, T/C: 90.6%
Second compound 1 µM, first compound 0.0999 µM
  viability, T/C: 90.5%
[21]
  viability, T/C: 84.8%
Second compound 3.16 µM, first compound 0.000999 µM
  viability, T/C: 93.2%
Second compound 3.16 µM, first compound 0.00316 µM
  viability, T/C: 84%
Second compound 3.16 µM, first compound 0.00999 µM
  viability, T/C: 82.1%
[25]
  viability, T/C: 96.3%
Second compound 3.16 µM, first compound 0.0999 µM
  viability, T/C: 77.6%
[27]
  viability, T/C: 80.7%
Second compound 10 µM, first compound 0.000999 µM
  viability, T/C: 83.2%
Second compound 10 µM, first compound 0.00316 µM
  viability, T/C: 88.7%
Second compound 10 µM, first compound 0.00999 µM
  viability, T/C: 73.2%
[31]
  viability, T/C: 78.6%
Second compound 10 µM, first compound 0.0999 µM
  viability, T/C: 84.6%
[33]
  viability, T/C: 69.5%
